Assay results published in patent US9080154B1, “Cancer stem cell survivor lines” (BOWLING GREEN STATE UNIVERSITY, priority 2012, dated 2015).

Experiments:
[1] = tested on: ALDH1A1; experiment: ALDH1A1 level by ELISA in curcumin-surviving lines; assay type: cell-based, human; conditions: all six surviving lines; t-test p<0.005
Experimental: (§1) To select for a curcumin-surviving cell subpopulation, each of the ESCC cell lines was cultured in 100-mm dishes (1×10^5 cells/dish) with complete DMEM and incubated at 37° C. until reaching near confluency, approximately 80%. After incubation, the medium was removed and the cells were incubated in complete DMEM containing either 40 or 60 μM curcumin in dissolved in 0.2% DMSO for 30 hrs. After incubation, the medium-containing curcumin was removed and replaced with complete DMEM to allow cells that survived the treatment to grow. After the surviving cells formed colonies (normally four weeks after treatment), the colonies were counted, trypsinized, and passaged. The cell lines that developed were designated the curcumin-surviving cell lines. To determine the level of ALDH1A1 and RelA (p65), the major subunit of transcription factor (NF-κB), on both curcumin-surviving cells and original cell lines, ELISA was performed as described previously. Briefly, each cell line was cultured in 96-well plates (5×10^4 cells/well) and incubated for 24 hrs at 37° C. After incubation, the wells were washed once with PBS and fixed with methanol for 5 min; the wells were then washed twice with PBS. […] The antigen-antibody reactions were measured by determining the optical density (O.D.) at 410 nm using MR-600 microwell plate reader (Dynatech Lab Inc.). The resulting absorbance was analyzed using ANOVA.

[2] = tested on: RelA (p65), the major subunit of NF-κB; experiment: NF-κB level by ELISA in curcumin-surviving lines; assay type: cell-based, human
Experimental: as §1, with “PBS. Different dilutions of each antibody (anti-p65, Santa Cruz Biotechnology, SC-109, 200 μg/ml, and anti-ALDH1A1, Proteintech Group, 15910-1-AP, 133 μg/ml) were prepared in complete DMEM (1:50, 1:100, 1:200 and 1:500, 1:1000, 1:2000, respectively). The wells were incubated with 100 μl of each dilution (3 wells/dilution) for 2 hrs at 37° C. After incubation, the wells were washed with PBS three times and incubated with 100 μl/well of galactosidase-conjugated goat anti-rabbit secondary antibody (Southern Biotech, Birmingham, Ala.) (1:500 dilution in complete DMEM) for 2 hrs at 37° C.” for “PBS.”

[3] = tested on: CD44; experiment: CD44 immunocytochemistry of curcumin-surviving lines; assay type: cell-based, human
Experimental: (§2) To select for a curcumin-surviving cell subpopulation, each of the ESCC cell lines was cultured in 100-mm dishes (1×10^5 cells/dish) with complete DMEM and incubated at 37° C. until reaching near confluency, approximately 80%. After incubation, the medium was removed and the cells were incubated in complete DMEM containing either 40 or 60 μM curcumin in dissolved in 0.2% DMSO for 30 hrs. After incubation, the medium-containing curcumin was removed and replaced with complete DMEM to allow cells that survived the treatment to grow. After the surviving cells formed colonies (normally four weeks after treatment), the colonies were counted, trypsinized, and passaged. The cell lines that developed were designated the curcumin-surviving cell lines.
(§3) To assess the expression of the stem cell markers ALDH1A1 and CD44 in both the original ESCC cell lines and the curcumin-surviving cell lines, each line was grown on glass cover slips in complete DMEM. After two days, the cover slips were rinsed with PBS and fixed with methanol for 5 min. The cover slips were then washed three times with PBS, exposed to 0.3% hydrogen peroxide for 3 min and rinsed three times with PBS. […]
(§4) The images of cell cultures immunostained for ALDH1A1 or CD44 were analyzed with ImageJ (NIH) and OriginLab (Microcal) software. […]

[4] = tested on: YES-1 cell line; experiment: surviving colonies after curcumin treatment; assay type: cell-based, human; conditions: 60 μM curcumin, 30 hrs
Experimental: as §2
(§5) According to the dose-response results, 60 μM curcumin was chosen to select for the curcumin-surviving cell line subpopulations. To establish this subpopulation, 1×10^5 cells from each ESCC lines were plated into a 100 mm tissue culture dishes and incubated until they reached near confluency. The cells were then exposed to 60 μM curcumin for 30 hrs. and the surviving colonies formed were counted. The number of colonies formed after 60 μM curcumin treatment varied among the six cell lines.

[5] = tested on: KY-10 cell line; experiment: surviving colonies after curcumin treatment; assay type: cell-based, human; conditions: 60 μM curcumin, 30 hrs
Experimental: as §2, §5

[6] = tested on: KY-5 cell line; experiment: surviving colonies after curcumin treatment; assay type: cell-based, human; conditions: 60 μM curcumin, 30 hrs
Experimental: as §2, §5

[7] = tested on: YES-2 cell line; experiment: surviving colonies after curcumin treatment; assay type: cell-based, human; conditions: 30 hrs
Experimental: as §2, §5

[8] = tested on: TE-1 cell line; experiment: surviving colonies after curcumin treatment; assay type: cell-based, human; conditions: 60 μM curcumin, 30 hrs
Experimental: as §2, §5

[9] = tested on: TE-8 cell line; experiment: surviving colonies after curcumin treatment; assay type: cell-based, human; conditions: 60 μM curcumin, 30 hrs
Experimental: as §2, §5

[10] = tested on: ALDH1A1; experiment: ALDH1A1 immunocytochemistry of curcumin-surviving lines; assay type: cell-based, human; conditions: survived 60 μM curcumin
Experimental: as §2, §3, §4

[11] = tested on: KY-10 cell line; experiment: crystal violet assay, cells remaining after curcumin; assay type: cell-based, human; conditions: 30 hrs, concentration that kills half the cells
Experimental: (§6) To determine the effect of different doses of curcumin on the ESCC lines, each cell line was plated in 24-well plates (Corning) at a density of 5×10^4 cells/well in complete DMEM, and incubated at 37° C. Curcumin (Sigma-Aldrich, St Louis, Mo.) was dissolved in dimethyl sulfoxide (DMSO) to make a stock solution of 20 mM curcumin. For each experiment, stock solution was diluted to the final concentrations (20, 30, 40, 60 and 80 μM) in complete DMEM. Twenty-four hours after plating, the wells were washed with PBS once, and 1 ml of each curcumin dosage was added (4 wells/dosage) and incubated for 30 hrs. Four other wells received complete DMEM or complete DMEM with 0.2% DMSO as controls. The inhibition of cell growth in response to curcumin treatment was assayed with the crystal violet staining assay according to a standard protocol. Briefly, the cells in each well were washed once with PBS, stained with 200 μl crystal violet in 50% ethanol (10 mg/ml), and incubated at room temperature for 10 min. The crystal violet was then removed and the wells were washed two times with distilled water, and 600 μl of 1% sodium dodecylsulfate (SDS) in water was added to each well. The plates were maintained overnight at room temperature on a shaker to dissolve the dye. Absorbance was read at 490 nm using a Wallac Victor 1420 Multilabel plate reader (Perkin Elmer, Waltham, Mass.). The background readings from the SDS solution were subtracted from each reading and the percentage of cells remaining after curcumin treatment was calculated. The results were plotted in OriginPro 7.5 (OriginLab) and analyzed by ANOVA.
(§7) To assess the sensitivity of the six human ESCC lines to curcumin, the cell lines (TE-1, TE-8, KY-5, KY-10, YES-1, and YES-2) were plated in 24-well plates for 24 hrs and then exposed to 20, 30, 40, 60, and 80 μM curcumin and to 0.2% DMSO as a control for 30 hrs. The resulting cell density was determined by standard crystal violet assay. The cell density remaining after the treatment is shown in the dose-response curve (FIG. 2). […] However, KY-5 had the highest percentage of cells remaining at the highest curcumin concentration, and the YES-2 cell line had the lowest percentage of cells remaining. When the cell lines were ranked from low to high according to their sensitivity to 60 μM curcumin the order was: KY-5, YES-1, TE-8, TE-1, KY-10, and YES-2.

[12] = tested on: KY-5 cell line; experiment: as above; assay type: cell-based, human; conditions: 30 hrs
Experimental: as §6, §7

[13] = tested on: YES-2 cell line; experiment: as above; assay type: cell-based, human; conditions: 30 hrs
Experimental: as §6, §7

[14] = tested on: six human ESCC lines (TE-1, TE-8, KY-5, KY-10, YES-1, YES-2); experiment: as above; assay type: cell-based; conditions: 20-80 μM curcumin, 30 hrs; all six ESCC lines
Experimental: as §6, with “The inhibition of cell growth in response to curcumin treatment was assayed with the crystal violet staining assay according to a standard protocol. Briefly, the cells in each well were washed once with PBS, stained with 200 μl crystal violet in 50% ethanol (10 mg/ml), and incubated at room temperature for 10 min. The crystal violet was then removed and the wells were washed two times with distilled water, and 600 μl of 1% sodium dodecylsulfate (SDS) in water was added to each well. The plates were maintained overnight at room temperature on a shaker to dissolve the dye.” left out
To assess the sensitivity of the six human ESCC lines to curcumin, the cell lines (TE-1, TE-8, KY-5, KY-10, YES-1, and YES-2) were plated in 24-well plates for 24 hrs and then exposed to 20, 30, 40, 60, and 80 μM curcumin and to 0.2% DMSO as a control for 30 hrs. The resulting cell density was determined by standard crystal violet assay. […]

[15] = concentration that kills half the cells

COc1cc(/C=C/C(=O)CC(=O)/C=C/c2ccc(O)c(OC)c2)ccc1O [curcumin]
ALDH1A1 level of curcumin-surviving lines compared to original lines [1]: lower ALDH1A1 level
NF-κB level of curcumin-surviving lines compared to original lines ([2]; KY-5, YES-1 and YES-2 surviving lines, t-test p<0.005): lower NF-κB levels
NF-κB level of curcumin-surviving line compared to original line ([2]; KY-10 surviving line, t-test p>0.05): no difference
NF-κB level of curcumin-surviving lines compared to original lines ([2]; TE-1 and TE-8 surviving lines): increase of NF-κB level
percentage of high CD44-staining cells in curcumin-surviving line ([3]; YES-1S, survived 60 μM curcumin, original YES-1 16%): 6.5%
percentage of high CD44-staining cells in curcumin-surviving line ([3]; YES-2S, survived 40 μM curcumin, original YES-2 19%): 9.2%
number of surviving colonies formed [4]: 25
number of surviving colonies formed [5]: 19
number of surviving colonies formed [6]: too many colonies to count
number of surviving colonies formed ([7]; 40 μM curcumin): 15
number of surviving colonies formed ([7]; 60 μM curcumin): 0
number of surviving colonies formed [8]: 8
number of surviving colonies formed [9]: 17
percentage of high ALDH1A1-staining cells in curcumin-surviving line ([10]; KY-5S, original lines ranged 11.3% to 55.7%, KY-5 greatest): 19%
percentage of high ALDH1A1-staining cells in curcumin-surviving line ([10]; TE-8S): 0%
LD50 [11]: less than 10 μM
cells remaining after curcumin ([12]; 80 μM curcumin, crystal violet): 37%
LD50 [12, 15]: 32 µM
attached cells remaining after curcumin ([13]; 80 μM curcumin, crystal violet): 4%
LD50 [13, 15]: 15 µM
reduction in cells [14]: reduction in cells in a dosage dependent manner
